Entries after “also recorded” stand apart in the source; their conditions may differ.

For data set [1], the system named is cancer cells (H-1, PC-3, A375, Met-1). The data set can be described thus: Cancer cell proliferation assay (MTT). It counts as cell-based. To be noted: times higher than in endothelial cells, FIG. 14. Here is the method: Cells (HUVEC, H-1, PC-3, A375, Met-1) were seeded into 96-well plates at 1.0-1.5×10^3 cells per well in 100 μL complete medium. After 24 h, the medium was replaced with fresh complete medium containing test compounds and the cells were incubated for another 72 hours. Cell viability was assessed by MTT assay (Sigma-Aldrich).

Data set [2] has as its system MMP activity in PC-3 cells. The data set can be described thus: Matrix metalloproteinase (MMP) assay by zymography, PC-3 cells. The format is cell-based. The conditions noted are these: FIG. 17 left. Here is the method: MMP activity in PC-3 and HUVEC cells were carried out by zymography (J Vis Exp, e2445). […] After that, the gels were incubated at renaturing buffer for 30 min, followed with incubation at zymography developing buffer for 30 min at room temperature, and replaced with fresh developing buffer and incubated at 37° C. overnight. The gels were stained by Coomassie blue, and images were recorded and analyzed by NIH Image J software.

The test system of the next data set is HepG2 cells. The data set can be described thus: HepG2 cell viability analysis (MTT). It counts as cell-based. How it is done: Cells were plated at 10,000 cell per well in 96-well plates and allowed to attach overnight under the growth conditions described above. […] These compounds were dissolved in 100% DMSO and diluted with EMEM to the desired concentration of 0.1 μM, 1.0 μM, 10 μM, 25 μM, and 50 μM, with a final DMSO concentration of 0.1% for all cell-based in vitro studies. All studies included DMSO as a solvent control. Cell viability was determined using the MTT Cell Viability Assay Kit from ATCC according to manufacturer's instructions. The 96-well plates were measure at 570 nm using SpectroMax 190 plate reader (Molecular Devices, Sunnyvale, Calif.). […] Each concentration was performed in triplicate per 96-well plate and EC50 data are presented as the mean±standard deviation from at least 3 separate experiments performed on separate days.

For a further data set, the system named is LPS induced allodynia. In words: Von Frey mechanical nociceptive assay, LPS induced model of inflammatory pain. It counts as in vivo. To be noted: male SD rats, 10 mg/kg s.c. 60 minutes before intraplantar LPS, tested until 6 hours post LPS. Here is the method:
In vivo anti-allodynic effects of the COX-2/sEH dual inhibitors provided herein was assayed. An LPS induced model of inflammatory pain was used to compare the pain reducing activity of the COX-2/sEH dual inhibitors to combination and individual therapies.
Rats weighing approximately 250-300 grams are brought to the testing apparatus and allowed to acclimate for 30 minutes. After 30 minutes the rats are tested with a von Frey aesthesiometer for their non-treated baseline withdrawal latency to mechanical stimulation. The von Frey apparatus is a raised metal mesh platform that has clear acrylic chambers to enclose rats but allow them to move freely. A rigid tip von Frey probe is used to probe the plantar surface of the rat hind paw though the mesh floor to elicit a withdrawal response. The measures recorded are grams of force applied to the hind paw required to elicit a withdrawal. The pretreatment baseline score is considered the pain-free baseline (BL) and is assigned 100% for further response calculations. […] The measures are then calculated as a percent of the pretreatment baseline score.

A short description of data set [3]: Pharmacokinetics in rats by oral administration.
The test system of another data set is HUVEC cells. The data set can be described thus: HUVEC endothelial tube formation assay. It counts as cell-based, human. The conditions noted are these: treated for 4-6 hours, FIG. 12. Here is the method:
Endothelial tube formation assay was carried out using a slightly modified method described by Arnaoutova and Kleinman (Nat. Protocols 5, 628-635). Briefly, 96-well plates were coated with growth-factor reduced Matrigel (50 μL per well, BD Biosciences, San Jose, Calif.) at 37° C. for 30 min. HUVEC cells were seeded into the 96-well plates at 2×10^4 cells per well in 100 μL serum-free F-12K medium with or without test compounds and incubated for 6 h 37° C. in the incubator. Microscope image was recorded and analyzed by NIH Image J software.

The target in another data set is T1, 5-LOX (Homo sapiens, UniProt P09917).
T1 sequence (P09917 1-674): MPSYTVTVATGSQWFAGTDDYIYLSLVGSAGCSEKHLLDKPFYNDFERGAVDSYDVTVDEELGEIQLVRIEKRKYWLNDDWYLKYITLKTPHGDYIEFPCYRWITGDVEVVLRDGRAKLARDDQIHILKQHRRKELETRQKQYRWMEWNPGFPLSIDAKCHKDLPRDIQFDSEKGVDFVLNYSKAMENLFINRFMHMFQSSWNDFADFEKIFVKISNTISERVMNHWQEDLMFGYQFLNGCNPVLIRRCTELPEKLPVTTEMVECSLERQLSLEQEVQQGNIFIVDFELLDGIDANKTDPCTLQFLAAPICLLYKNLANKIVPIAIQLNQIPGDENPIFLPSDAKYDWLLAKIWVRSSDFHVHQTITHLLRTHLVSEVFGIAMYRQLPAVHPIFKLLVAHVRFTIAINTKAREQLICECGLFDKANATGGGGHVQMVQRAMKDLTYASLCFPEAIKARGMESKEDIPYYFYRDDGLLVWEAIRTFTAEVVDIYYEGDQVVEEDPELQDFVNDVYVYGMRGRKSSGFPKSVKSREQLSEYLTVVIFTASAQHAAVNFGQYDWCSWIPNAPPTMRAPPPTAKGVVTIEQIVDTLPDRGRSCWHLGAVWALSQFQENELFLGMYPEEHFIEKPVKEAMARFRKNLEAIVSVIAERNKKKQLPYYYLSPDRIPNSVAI
In words: Potency against 5-LOX. The format is biochemical. To be noted: compared with celecoxib.

Where [4] appears, read: 21i in comparison with 21j, rats oral 1 mg/kg.
The mark [5] stands for this setting: rats, oral administration at 1 mg/kg (n = 4), blood.

In the case of `NS(=O)(=O)c1ccc(-n2nc(CCCNC(=O)Nc3ccc(C(F)(F)F)cc3)cc2-c2ccccc2)cc1` [Compound 21i, 4-(5-Phenyl-3-{3-[3-(4-trifluoromethyl-phenyl)-ureido]-propyl}-pyrazol-1-yl)-benzenesulfonamide], the “IC50 in cancer cells relative to endothelial cells” value in data set [1] was 5-10 times. For the same compound, the “MMP activity, in words” value in data set [2] is reported as “no effect on MMP activity”. In the data set with HepG2 cells (Homo sapiens, HepG2, MTT after 24 hours of incubation), the concentration for a half-maximal effect (EC50) turned out to be 4.5 ± 0.5 µM. Further, the “Effect on HepG2 cell viability (killing cancer cells), in words” value with HepG2 cells (dose dependence, FIG. 9) is on record as “more efficient than Celecoxib in combination or not with t-TUCB in killing the cancer cells”. Also, in the data set on LPS induced allodynia, the “Anti-allodynic effect, von Frey paw withdrawal, in words” value was “better in vivo efficacy in a pain model in rats compared to celecoxib and t-AUCB combination therapy; also recorded: superior effect compared to the combination therapies; also recorded: superior anti-allodynic activity; also recorded: more efficient than the combination of celecoxib with t-AUCB”. In data set [3] (setting [4]), the “Higher AUC in rats” value stood at 2 fold and the “Higher Cmax in rats” value is listed as 2 fold. In addition, in data set [3] (setting [5]), the AUC is 2.764 ± 0.804 µM·h, the highest concentration (Cmax) turned out to be 415 ± 139 nM, the Tmax was 1.5 ± 0.6 h and the t1/2 is 12.9 ± 3.8 h. In addition, the “HUVEC tube formation, in words” value with HUVEC cells is on record as “inhibits endothelial proliferation assay of HUVEC cells”. The “Potency against 5-LOX, in words” value at 5-LOX was “comparable with celecoxib”.

The term EC50 denotes the concentration at which the effect is half-maximal. Broadly, the AUC is concentration integrated over time. One may read the Cmax as the maximum level reached in the sampled fluid or tissue. Broadly, the Tmax is the time at which the peak concentration occurs.
